Data as given in patent publication US11033539B2, “Compounds of formulas (VII), (VIII), (IX), (XI), (XII), (XIII), and (XIV) as muscarinic receptor 4(M4) antagonists for treating neurological diseases” (Neurocrine Biosciences, Inc., priority 2015, dated 2021).
pKi: −log10 of the molar value.

Experiments:
human M1 receptor = human M1 receptor (Homo sapiens (Human), UniProt P11229); assay: Radioligand (tritiated N-methylscopolamine) binding assay, M1; conditions: CHO cell membranes expressing human M1; 1.5 nM tritiated N-methylscopolamine; 90 min, 37° C.; read-out: Ki against M1 receptor (Table 21, M1)
How it was run: (§1)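 Membranes from CHO cells expressing the receptor were incubated with 1.5 nM radioligand and twelve compound concentrations (10 μM to […]) for 90 min at 37 °C in 50 mM HEPES, 100 mM NaCl, 5 mM MgCl2, 1 mM EDTA, pH 7.4. Bound radioligand was collected by filtration and counted, and Ki was derived from inhibition.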

human M2 receptor = human M2 receptor (Homo sapiens (Human), UniProt P08172); assay: Radioligand (tritiated N-methylscopolamine) binding assay, M2; conditions: CHO cell membranes expressing human M2; 1.5 nM tritiated N-methylscopolamine; 90 min, 37° C.; read-out: Ki against M2 receptor (Table 21, M2)
How it was run: as §1

human M3 receptor = human M3 receptor (Homo sapiens (Human), UniProt P20309); assay: Radioligand (tritiated N-methylscopolamine) binding assay, M3; conditions: CHO cell membranes expressing human M3; 1.5 nM tritiated N-methylscopolamine; 90 min, 37° C.; read-out: Ki against M3 receptor (Table 21, M3)
How it was run: as §1

human M4 receptor = human M4 receptor (Homo sapiens (Human), UniProt P08173); assay: Radioligand (tritiated N-methylscopolamine) binding assay, M4; conditions: Ki against the M4 receptor; membranes from CHO cells expressing human M4; tritiated N-methylscopolamine 1.5 nM; read-out: Ki
How it was run: as §1

human M5 receptor = human M5 receptor (Homo sapiens (Human), UniProt P08912); assay: Radioligand (tritiated N-methylscopolamine) binding assay, M5; conditions: CHO cell membranes expressing human M5; 1.5 nM tritiated N-methylscopolamine; 90 min, 37° C.; read-out: Ki against M5 receptor (Table 21, M5)
How it was run: as §1

Sequence of human M2 receptor (P08172 whole entry): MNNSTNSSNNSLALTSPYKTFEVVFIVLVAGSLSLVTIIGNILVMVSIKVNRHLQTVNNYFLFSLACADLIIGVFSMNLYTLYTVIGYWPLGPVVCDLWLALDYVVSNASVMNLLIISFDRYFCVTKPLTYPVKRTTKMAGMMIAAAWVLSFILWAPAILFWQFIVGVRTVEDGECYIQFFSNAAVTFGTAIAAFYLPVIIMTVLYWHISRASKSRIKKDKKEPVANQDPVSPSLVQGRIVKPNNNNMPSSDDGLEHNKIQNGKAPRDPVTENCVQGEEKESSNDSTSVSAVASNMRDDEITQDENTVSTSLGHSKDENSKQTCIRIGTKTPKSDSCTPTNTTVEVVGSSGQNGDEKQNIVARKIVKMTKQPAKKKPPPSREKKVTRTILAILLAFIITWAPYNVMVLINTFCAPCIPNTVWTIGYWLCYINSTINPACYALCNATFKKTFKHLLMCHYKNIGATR
Sequence of human M4 receptor (P08173 whole entry): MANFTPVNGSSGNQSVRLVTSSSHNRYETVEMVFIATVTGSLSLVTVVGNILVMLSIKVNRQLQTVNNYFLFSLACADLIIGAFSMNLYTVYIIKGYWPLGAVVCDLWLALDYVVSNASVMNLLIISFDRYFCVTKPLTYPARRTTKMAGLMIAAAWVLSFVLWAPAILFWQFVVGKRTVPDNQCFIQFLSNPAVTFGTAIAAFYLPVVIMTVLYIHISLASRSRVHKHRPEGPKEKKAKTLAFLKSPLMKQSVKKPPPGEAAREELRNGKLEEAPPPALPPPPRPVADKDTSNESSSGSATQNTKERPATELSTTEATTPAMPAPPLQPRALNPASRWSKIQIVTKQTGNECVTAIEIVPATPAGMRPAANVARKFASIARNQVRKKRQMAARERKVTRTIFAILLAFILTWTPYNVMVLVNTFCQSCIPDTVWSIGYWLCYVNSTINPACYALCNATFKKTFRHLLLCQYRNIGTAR
Sequence of human M1 receptor (P11229 whole entry): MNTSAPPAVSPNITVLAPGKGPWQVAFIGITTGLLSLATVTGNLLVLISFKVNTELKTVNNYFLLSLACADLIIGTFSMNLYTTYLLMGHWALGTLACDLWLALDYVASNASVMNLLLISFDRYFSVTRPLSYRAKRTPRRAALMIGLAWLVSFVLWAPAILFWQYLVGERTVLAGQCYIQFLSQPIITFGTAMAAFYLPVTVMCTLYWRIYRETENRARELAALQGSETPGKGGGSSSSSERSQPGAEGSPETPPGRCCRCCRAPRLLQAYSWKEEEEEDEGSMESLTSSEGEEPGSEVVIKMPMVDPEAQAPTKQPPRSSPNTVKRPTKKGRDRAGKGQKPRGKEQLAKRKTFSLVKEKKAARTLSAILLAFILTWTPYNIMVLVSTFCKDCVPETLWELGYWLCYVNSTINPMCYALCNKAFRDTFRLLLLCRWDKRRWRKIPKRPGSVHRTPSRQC
Sequence of human M5 receptor (P08912 whole entry): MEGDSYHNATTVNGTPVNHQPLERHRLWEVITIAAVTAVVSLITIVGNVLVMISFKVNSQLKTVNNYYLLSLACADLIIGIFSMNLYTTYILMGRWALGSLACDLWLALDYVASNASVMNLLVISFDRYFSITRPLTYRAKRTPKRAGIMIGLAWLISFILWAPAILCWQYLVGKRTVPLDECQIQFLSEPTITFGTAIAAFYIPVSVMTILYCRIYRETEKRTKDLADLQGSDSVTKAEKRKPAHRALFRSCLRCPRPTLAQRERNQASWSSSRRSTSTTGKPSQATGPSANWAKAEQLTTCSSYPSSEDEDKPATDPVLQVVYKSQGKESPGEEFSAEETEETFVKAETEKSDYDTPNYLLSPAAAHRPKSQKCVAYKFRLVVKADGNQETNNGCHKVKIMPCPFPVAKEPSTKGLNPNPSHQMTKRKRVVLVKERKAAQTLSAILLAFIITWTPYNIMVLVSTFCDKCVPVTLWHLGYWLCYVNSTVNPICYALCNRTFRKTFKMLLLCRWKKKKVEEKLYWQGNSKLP
Sequence of human M3 receptor (P20309 whole entry): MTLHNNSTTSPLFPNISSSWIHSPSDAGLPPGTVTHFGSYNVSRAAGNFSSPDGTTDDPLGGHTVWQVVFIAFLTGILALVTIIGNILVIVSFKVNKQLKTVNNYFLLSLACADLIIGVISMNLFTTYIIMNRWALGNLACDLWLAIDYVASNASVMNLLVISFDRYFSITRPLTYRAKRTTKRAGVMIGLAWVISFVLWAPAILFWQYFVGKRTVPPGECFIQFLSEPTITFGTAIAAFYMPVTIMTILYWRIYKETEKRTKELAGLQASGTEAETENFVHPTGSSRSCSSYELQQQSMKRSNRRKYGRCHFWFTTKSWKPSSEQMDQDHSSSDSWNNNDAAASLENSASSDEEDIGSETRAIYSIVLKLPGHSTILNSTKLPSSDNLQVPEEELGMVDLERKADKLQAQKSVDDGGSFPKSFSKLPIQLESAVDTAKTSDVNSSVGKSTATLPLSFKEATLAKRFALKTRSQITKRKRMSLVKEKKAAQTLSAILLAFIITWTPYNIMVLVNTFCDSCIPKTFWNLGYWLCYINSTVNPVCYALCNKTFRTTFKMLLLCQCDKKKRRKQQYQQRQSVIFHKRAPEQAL

SMILES	pKi (human M1 receptor)	pKi (human M2 receptor)	pKi (human M3 receptor)	pKi (human M4 receptor)	pKi (human M5 receptor)
O=C(NCCC1CCN(Cc2ccccc2)CC1)C1CCN(c2ncc(C(F)(F)F)cc2Cl)CC1 [9-63, N-[2-(1-benzylpiperidin-4-yl)ethyl]-1-[3-chloro-5(trifluoromethyl)pyridin-2-yl]piperidine-4-carboxamide]	7.00 to 8.00	> 8.00	7.00 to 8.00	> 8.00	6.00 to 7.00
C[C@@H]1CN(c2ccc(C(F)(F)F)cc2)CCN1C(=O)NCCC1CCN(Cc2ccccc2)CC1 [4-5, (2R)-N-[2-(1-benzylpiperidin-4-yl)ethyl]-2-methyl-4-[4-(trifluoromethyl)phenyl]piperazine-1-carboxamide]	6.00 to 7.00	7.00 to 8.00	< 6.00	> 8.00	< 6.00
N#Cc1cnc(N2CC3CCC(C2)N3C(=O)NCCC2CCN(Cc3ccccc3)CC2)nc1 [8-48, N-[2-(1-benzylpiperidin-4-yl)ethyl]-3-(5-cyanopyrimidin-2-yl)-3,8-diazabicyclo[3.2.1]octane-8-carboxamide]	7.00 to 8.00	> 8.00	6.00 to 7.00	> 8.00	6.00 to 7.00
O=C(NCCC1CCN(Cc2ccccc2)CC1)C1CCN(c2cccc(OC(F)(F)F)c2)CC1 [10-19, N-[2-(1-benzylpiperidin-4-yl)ethyl]-1-[3-(trifluoromethoxy)phenyl]piperidine-4-carboxamide]	6.00 to 7.00	6.00 to 7.00	< 6.00	> 8.00	< 6.00
COc1nc(N2C[C@@H](C)N(C(=O)NCCC3CCN(Cc4ccccc4)CC3)[C@@H](C)C2)ncc1C#N [5-17, (2R,6S)-N-[2-(1-benzylpiperidin-4-yl)ethyl]-4-(5-cyano-4-methoxypyrimidin-2-yl)-2,6-dimethylpiperazine-1-carboxamide]	6.00 to 7.00	6.00 to 7.00	6.00 to 7.00	> 8.00	< 6.00
O=C(NCCC1CCN(Cc2ccccc2)CC1)C1CCN(c2ccc(OC(F)(F)F)c(F)c2)CC1 [10-8, N-[2-(1-benzylpiperidin-4-yl)ethyl]-1-[3-fluoro-4-(trifluoromethoxy)phenyl]piperidine-4-carboxamide]	< 6.00	6.00 to 7.00	< 6.00	> 8.00	< 6.00
CC1CN(c2ccc(OC(F)(F)F)cc2)CCC1C(=O)NCCC1CCN(Cc2ccccc2)CC1 (stereo not shown) [10-6, N-[2-(1-benzylpiperidin-4-yl)ethyl]-3-methyl-1-[4-(trifluoromethoxy)phenyl]piperidine-4-carboxamide]	6.00 to 7.00	6.00 to 7.00	< 6.00	> 8.00	< 6.00
C[C@@H]1CN(c2cc(F)c(F)c(F)c2)CCN1C(=O)NCCC1CCN(Cc2ccc(F)cc2)CC1 [6-4, (2R)-N-(2-{1-[(4-fluorophenyl)methyl]piperidin-4-yl}ethyl)-2-methyl-4-(3,4,5-trifluorophenyl)piperazine-1-carboxamide]	6.00 to 7.00	6.00 to 7.00	< 6.00	> 8.00	< 6.00
O=C(NCC(O)C1CCN(Cc2ccccc2)CC1)C1CCN(c2ccc(OC(F)(F)F)cc2)CC1 (stereo not shown) [9-8, N-[2-(1-benzylpiperidin-4-yl)-2-hydroxyethyl]-1-[4-(trifluoromethoxy)phenyl]piperidine-4-carboxamide]	< 6.00	6.00 to 7.00	< 6.00	> 8.00	< 6.00
COc1cc(C#N)cc(N2CCC(C(=O)NCCC3CCN(Cc4ccccc4)CC3)CC2)c1 [10-54, N-[2-(1-benzylpiperidin-4-yl)ethyl]-1-(3-cyano-5-methoxyphenyl)piperidine-4-carboxamide]	6.00 to 7.00	7.00 to 8.00	< 6.00	> 8.00	< 6.00
Nc1nc(N2CCN(C(=O)NCCC3CCN(Cc4ccccc4)CC3)CC2)ncc1C(F)(F)F [5-30, 4-[4-amino-5-(trifluoromethyl)pyrimidin-2-yl]-N-[2-(1-benzylpiperidin-4-yl)ethyl]piperazine-1-carboxamide]	< 6.00	6.00 to 7.00	< 6.00	> 8.00	< 6.00
C[C@@H]1CN(c2cccc(C#N)c2)CCN1C(=O)NCCC1CCN(Cc2ccccc2)CC1 [4-68, (2R)-N-[2-(1-benzylpiperidin-4-yl)ethyl]-4-(3-cyanophenyl)-2-methylpiperazine-1-carboxamide]	6.00 to 7.00	6.00 to 7.00	< 6.00	> 8.00	< 6.00
C[C@@H]1CN(c2ncc(Cl)c(N)n2)CCN1C(=O)NCCC1CCN(Cc2ccccc2)CC1 [5-32, (2R)-4-(4-amino-5-chloropyrimidin-2-yl)-N-[2-(1-benzylpiperidin-4-yl)ethyl]-2-methylpiperazine-1-carboxamide]	< 6.00	7.00 to 8.00	< 6.00	> 8.00	< 6.00
C[C@@H]1CN(C(=O)NCCC2CCN(Cc3ccccc3)CC2)CCN1c1ccc(OC(F)(F)F)c(F)c1 [4-22, (3R)-N-[2-(1-benzylpiperidin-4-yl)ethyl]-4-[3-fluoro-4-(trifluoromethoxy)phenyl]-3-methylpiperazine-1-carboxamide]	< 6.00	6.00 to 7.00	< 6.00	> 8.00	6.00 to 7.00
C[C@@H]1CN(c2cnc(C#N)nc2)CCN1C(=O)NCCC1CCN(Cc2ccccc2)CC1 [4-80, (2R)-N-[2-(1-benzylpiperidin-4-yl)ethyl]-4-(2-cyanopyrimidin-5-yl)-2-methylpiperazine-1-carboxamide]	6.00 to 7.00	6.00 to 7.00	< 6.00	> 8.00	< 6.00
Cc1ccc(N2CCN(C(=O)NCCC3CCN(Cc4ccccc4)CC3)[C@H](C)C2)cc1F [4-13, (2R)-N-[2-(1-benzylpiperidin-4-yl)ethyl]-4-(3-fluoro-4-methylphenyl)-2-methylpiperazine-1-carboxamide]	< 6.00	6.00 to 7.00	< 6.00	> 8.00	< 6.00
C[C@@H]1CN(c2ccc(OC(F)(F)F)c(C#N)c2)CCN1C(=O)NCCC1(O)CCN(Cc2ccccc2)CC1 [3-5, (2R)-N-[2-(1-benzyl-4-hydroxypiperidin-4-yl)ethyl]-4-[3-cyano-4-(trifluoromethoxy)phenyl]-2-methylpiperazine-1-carboxamide]	< 6.00	6.00 to 7.00	< 6.00	> 8.00	< 6.00
C[C@@H]1CN(c2ccc(C#N)cn2)C[C@H](C)N1C(=O)NCCC1CCN(Cc2ccccc2)CC1 [3-23, (2S,6R)-N-[2-(1-benzylpiperidin-4-yl)ethyl]-4-(5-cyanopyridin-2-yl)-2,6-dimethylpiperazine-1-carboxamide]	< 6.00	6.00 to 7.00	< 6.00	> 8.00	< 6.00

Further lines, results first:

pKi (human M1 receptor)	pKi (human M2 receptor)	pKi (human M3 receptor)	pKi (human M4 receptor)	pKi (human M5 receptor)	SMILES
6.00 to 7.00	7.00 to 8.00	< 6.00	> 8.00	6.00 to 7.00	C[C@@H]1CN(c2ncc(F)cc2F)C[C@H](C)N1C(=O)NCCC1CCN(Cc2ccccc2)CC1 [22-5, (2R,6S)-N-[2-(1-benzylpiperidin-4-yl)ethyl]-4-(3,5-difluoropyridin-2-y1)-2,6-dimethylpiperazine-1-carboxamide]
< 6.00	6.00 to 7.00	< 6.00	> 8.00	< 6.00	Cc1c(C(=O)NCCC2CCN(Cc3ccccc3)CC2)cnc2cc(-c3cc(F)c(F)c(F)c3)nn12 [18-17]
6.00 to 7.00	7.00 to 8.00	< 6.00	> 8.00	< 6.00	C[C@@H]1CN(c2cnc(C(F)(F)F)cn2)CCN1C(=O)NCCC1CCN(Cc2ccccc2)CC1 [22-22]
6.00 to 7.00	7.00 to 8.00	< 6.00	> 8.00	6.00 to 7.00	C[C@H]1CN(c2ccc(C#N)cn2)CCC1C(=O)NCCC1CCN(Cc2ccccc2)CC1 (stereo partly drawn) [10-79, (3R)-N-[2-(1-benzylpiperidin-4-yl)ethyl]-1-(5-cyanopyridin-2-yl)-3-methylpiperidine-4-carboxamide]
6.00 to 7.00	6.00 to 7.00	< 6.00	> 8.00	6.00 to 7.00	COc1cc(N2CCN(C(=O)NCCC3CCN(Cc4ccccc4)CC3)[C@H](C)C2)cc(F)c1C#N [22-32]
< 6.00	7.00 to 8.00	< 6.00	> 8.00	< 6.00	O=C(NCCC1CCN(Cc2ccccc2)CC1)N1CCN(c2cnc(C(F)(F)F)cn2)CC1 [22-25, N-[2-(1-benzylpiperidin-4-yl)ethyl]-4-[5-(trifluoromethyl)pyrazin-2-yl]piperazine-1-carboxamide]
6.00 to 7.00	6.00 to 7.00	< 6.00	> 8.00	< 6.00	Cc1c(C(=O)NCCC2CCN(Cc3ccccc3)CC2)cnc2cc(-c3ccc(F)cc3)nn12 [18-4]
< 6.00	6.00 to 7.00	< 6.00	> 8.00	< 6.00	Cc1c(C(=O)NCCC2CCN(Cc3ccccc3)CC2)cnc2cc(-c3cc(F)cc(F)c3)nn12 [18-5]
